Reference: patent publication US11026945B2, “Protein kinase RNA-like endoplasmic reticulum kinase (PERK) inhibitors for prevention and/or treatment of lung injury and/or inflammation” (THE TRUSTEES OF THE UNIVERSITY OF PENNSYLVANIA, priority 2016, dated 2021)

Legend:
Format in all cases: cell-based, rat
AEC-I monolayers = experiment: Cytokine levels in culture supernatant, multiplex bead assay; details: stretched monolayers, PI treatment
Procedure: Given the interest in cytokines as a biomarker of injury, the contribution of ISR signaling to stretch-induced proinflammatory mediator release was assessed by measuring the level of 26 common cytokines in the culture media in the presence and absence of PI. Generally low cytokine response to stretch was found with modest elevations in IL-18, IL-1α and MIP-1α (FIG. 4A-FIG. 4C). […] (FIG. 4A). To study the regulation of IL-18 by ISR, stretched and unstretched cells were treated with CHOP, ATF4 and PERK siRNA (FIG. 17A-FIG. 17B and FIG. 4D-FIG. 4F). […] Cell culture media IL-18 levels were compared to no siRNA and non-targeting siRNA treatments.
Culture media of stretched and unstretched AEC-I monolayers was collected at the end of the experiment. N=5 biological monolayer replicates were used per condition. 0.5 ml samples were concentrated to 30 μl using centrifugal filters (Amicon Ultra, EMD Millipore). Levels of 26 common cytokines and chemokines were measured with RECYTMAG-65K MILLIPLEX MAP Rat Cytokine Chemokine Magnetic Bead Panel multiplex bead assay (EMD Millipore Corp., Billerica, Mass.) in triplicates per the manufacturer's protocol. 25 μl samples were used. The following analytes were measured: epidermal growth factor (EGF), eotaxin, macrophage colony stimulating factor […], interleukin (IL)-1α, 2,4,5,6,10,12 (p70), 13, 17A, 18; granulocyte-macrophage colony stimulating factor (GM-CSF), regulated on activation, normal T cell expressed and secreted (RANTES), vascular […] growth factor (VEGF), fractalkine, interferon-γ (INFγ), interferon-γ-inducible protein 10 (IP-10), leptin, tumor necrosis factor-α (TNF-α), keratinocyte chemoattractant (GRO/KC), macrophage inflammatory protein (MIP)-1α and 2, monocyte chemoattractant protein (MCP-1), and LPS-induced chemokine (LIX). Samples were read in triplicates and an averaged value was obtained.

[1] = test system: integrated stress response (ISR) signaling (p-PERK, p-EIF2α, ATF4, CHOP); experiment: Western blot of ISR signaling in stretched AEC-I monolayers
From the text: To obtain monolayer rat type-II alveolar epithelial cells (AEC-II), cells were isolated from Sprague-Dawley rats (250-300 g, N=30 purchased from Charles River Laboratories, Wilmington, Mass.) described by Tschumperlin D J, Margulies SS. Equibiaxial deformation-induced injury of alveolar epithelial cells in vitro. Am J Physiol. 1998; 275(6 Pt 1):L1173-83. Epub 1998/12/09 (PubMed PMID: 9843855), with modifications. Briefly, animals were killed and the lungs were harvested. The lung tissue was digested with elastase at 37° C. and distal airways were isolated. Following, cells were placed on rat IgG coated containing no serum for 90 minutes to eliminate contaminating leukocytes and parenchymal cells. This isolation method yielded approximately 95% pure alveolar epithelial cell population. 1.3 million cells were plated on 1 cm diameter fibronectin-coated custom made silastic membranes. In permeability studies, biotin were mixed with fibronectin and membranes were pretreated with oxygen plasma coating to ensure homogenous distribution of the fibronectin. Cells were cultured with 10% fetal bovine serum (FBS)-containing Minimal Essential Medium (MEM) containing low dose antibiotics for 3 days. 32 to 40 monolayers were per rat. […] RNAiMax transfection reagent treatment using serum free media (Opti-MEM, Thermo Fisher Scientific, Waltham, Mass.). This is a negative control for siRNA experiments where serum free media is used for improved transfection efficiency; • B. non-targeting siRNA treatment ([…], Dharmacon) serves a negative control for transfection; • C. 0.5 μg siRNA treatment targeting PERK; • D. 0.5 μg siRNA treatment targeting ATF4; • E. 0.5 μg siRNA treatment targeting CHOP; • F. vehicle control (DMSO) for PI; and • G. 1 μM PI treatment.
(§1) The dose of siRNA and PI treatment was selected based on dose-response curves above (FIG. 2A-FIG. 2E). AEC-II transformed to AEC-I cells and formed a complete monolayer by day 4, expressing only AEC-I cell surface markers. On the day of the experiment, the medium was removed and replaced with HEPES-buffered MEM. Cells stretch was performed in a 37° C. incubator. The effect of ISR inhibition or control treatment was compared in the following three conditions (N=5 biological replicates/condition): 1) no stretch (NS) controls; 2) mechanical stretch with 12% surface change (S 12%); and 3) mechanical stretch with 25% surface change (S25%). The cell monolayers were exposed to the above mentioned conditions for 6 hours based on time course of ISR protein expression obtained during preliminary data collection (FIG. 2A-FIG. 2E). All membranes were treated with FITC-labeled streptavidin (Thermo Fisher Scientific) at the end of the experiment and light emission was detected at 488 nm with fluorescent microscopy (Nikon TE300, Melville, N.Y.). In a separate set of experiments (N=30 rats), in which the above mentioned treatment plan and conditions were used, cells were harvested at the end of the experiment by scraping them in RIPA buffer and total protein was extracted (N=3 membranes/treatment group performed for N=5 biological replicates per condition). Co-immunoprecipitation (IP) assays were performed using 5 μg of ZO-1 protein as bait (IP kit, Thermo Fisher Scientific). Following co-IP, immunoblotting was performed for ZO-1, OCLN and CLDN proteins 4, 7 and 18 (Invitrogen, Carlsbad, Calif.).
Rats (N=106) were euthanized with an overdose of sodium pentobarbital (55 mg/kg). The chest was shaved and cleaned with Wexcide. Tracheostomy was performed, and a 14 gauge (G) metal cannula was inserted in the trachea lumen. The animals were connected to a rodent ventilator (Harvard Apparatus Model 640, Holliston, Mass.). Subsequently, the chest and abdomen were opened by a midline incision, and the aorta was transected causing exsanguination. […]

[2] = test system: tight junction proteins (CLDN4, CLDN18) bound to ZO-1 in AEC-I monolayers; experiment: Co-immunoprecipitation of tight junction proteins with ZO-1 as bait; details: stretched monolayers (25%, 6 hours), PI pretreatment
Procedure: as §1, with “Co-immunoprecipitation (IP) assays were performed using 5 μg of ZO-1 protein as bait (IP kit, Thermo Fisher Scientific). Following co-IP, immunoblotting was performed for ZO-1, OCLN and CLDN proteins 4, 7 and 18 (Invitrogen, Carlsbad, Calif.).” left out

[3] = stretched AEC-I monolayers, 1 μM PI, 24 hours pretreatment
[4] = unstretched monolayers, 1 μM PI for 18 hours

## Cn1cc(-c2ccc3c(c2)CCN3C(=O)Cc2cccc(C(F)(F)F)c2)c2c(N)ncnc21 [PI, 1-[5-(4-Amino-7-methyl-7H-pyrrolo[2,3-d]pyrimidin-5-yl)indolin-1-yl]-2-(3-trifluoromethylphenyl)ethanone]
AEC-I monolayers
  IL-1α level in supernatant: did not affect
  IL-18 level in supernatant: decreased
  MIP-1α level in supernatant: did not affect
[1]; [3]
  ATF4: decreased
  CHOP: decreased
  p-EIF2α: decreased
  p-PERK: decreased
[1]; [4]
  Level of ATF4: unaffected
  Level of CHOP: unaffected
  Level of p-EIF2α: unaffected
  Level of p-PERK: unaffected
[2]
  dissociation of CLDN 4 from ZO-1: prevented
  dissociation of CLDN 18 from ZO-1: prevented
